Key:
Assay in all cases: Kinase panel
Format in all cases: biochemical
Conditions in all cases: read-out: % Residual Activity
[1] = biological target: T1, TSSK3(h) (Homo sapiens, UniProt Q96PN8)
T1 construct: purchased Eurofins (KinaseProfiler)
Summary of the method: (§1)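 In this kinome-wide profiling of rilpivirine, IC50 values were obtained in radiometric format at the Km concentration of ATP for each kinase, then expressed as Ki using Cheng–Prusoff.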

[2] = biological target: T2, p70S6K(h) (Homo sapiens, UniProt P23443)
T2 construct: purchased Eurofins (KinaseProfiler)
Summary of the method: as §1

[3] = biological target: T3, Ros(h) (Homo sapiens, UniProt P08922)
T3 construct: purchased Eurofins (KinaseProfiler)
T3 sequence (P08922 28-2347): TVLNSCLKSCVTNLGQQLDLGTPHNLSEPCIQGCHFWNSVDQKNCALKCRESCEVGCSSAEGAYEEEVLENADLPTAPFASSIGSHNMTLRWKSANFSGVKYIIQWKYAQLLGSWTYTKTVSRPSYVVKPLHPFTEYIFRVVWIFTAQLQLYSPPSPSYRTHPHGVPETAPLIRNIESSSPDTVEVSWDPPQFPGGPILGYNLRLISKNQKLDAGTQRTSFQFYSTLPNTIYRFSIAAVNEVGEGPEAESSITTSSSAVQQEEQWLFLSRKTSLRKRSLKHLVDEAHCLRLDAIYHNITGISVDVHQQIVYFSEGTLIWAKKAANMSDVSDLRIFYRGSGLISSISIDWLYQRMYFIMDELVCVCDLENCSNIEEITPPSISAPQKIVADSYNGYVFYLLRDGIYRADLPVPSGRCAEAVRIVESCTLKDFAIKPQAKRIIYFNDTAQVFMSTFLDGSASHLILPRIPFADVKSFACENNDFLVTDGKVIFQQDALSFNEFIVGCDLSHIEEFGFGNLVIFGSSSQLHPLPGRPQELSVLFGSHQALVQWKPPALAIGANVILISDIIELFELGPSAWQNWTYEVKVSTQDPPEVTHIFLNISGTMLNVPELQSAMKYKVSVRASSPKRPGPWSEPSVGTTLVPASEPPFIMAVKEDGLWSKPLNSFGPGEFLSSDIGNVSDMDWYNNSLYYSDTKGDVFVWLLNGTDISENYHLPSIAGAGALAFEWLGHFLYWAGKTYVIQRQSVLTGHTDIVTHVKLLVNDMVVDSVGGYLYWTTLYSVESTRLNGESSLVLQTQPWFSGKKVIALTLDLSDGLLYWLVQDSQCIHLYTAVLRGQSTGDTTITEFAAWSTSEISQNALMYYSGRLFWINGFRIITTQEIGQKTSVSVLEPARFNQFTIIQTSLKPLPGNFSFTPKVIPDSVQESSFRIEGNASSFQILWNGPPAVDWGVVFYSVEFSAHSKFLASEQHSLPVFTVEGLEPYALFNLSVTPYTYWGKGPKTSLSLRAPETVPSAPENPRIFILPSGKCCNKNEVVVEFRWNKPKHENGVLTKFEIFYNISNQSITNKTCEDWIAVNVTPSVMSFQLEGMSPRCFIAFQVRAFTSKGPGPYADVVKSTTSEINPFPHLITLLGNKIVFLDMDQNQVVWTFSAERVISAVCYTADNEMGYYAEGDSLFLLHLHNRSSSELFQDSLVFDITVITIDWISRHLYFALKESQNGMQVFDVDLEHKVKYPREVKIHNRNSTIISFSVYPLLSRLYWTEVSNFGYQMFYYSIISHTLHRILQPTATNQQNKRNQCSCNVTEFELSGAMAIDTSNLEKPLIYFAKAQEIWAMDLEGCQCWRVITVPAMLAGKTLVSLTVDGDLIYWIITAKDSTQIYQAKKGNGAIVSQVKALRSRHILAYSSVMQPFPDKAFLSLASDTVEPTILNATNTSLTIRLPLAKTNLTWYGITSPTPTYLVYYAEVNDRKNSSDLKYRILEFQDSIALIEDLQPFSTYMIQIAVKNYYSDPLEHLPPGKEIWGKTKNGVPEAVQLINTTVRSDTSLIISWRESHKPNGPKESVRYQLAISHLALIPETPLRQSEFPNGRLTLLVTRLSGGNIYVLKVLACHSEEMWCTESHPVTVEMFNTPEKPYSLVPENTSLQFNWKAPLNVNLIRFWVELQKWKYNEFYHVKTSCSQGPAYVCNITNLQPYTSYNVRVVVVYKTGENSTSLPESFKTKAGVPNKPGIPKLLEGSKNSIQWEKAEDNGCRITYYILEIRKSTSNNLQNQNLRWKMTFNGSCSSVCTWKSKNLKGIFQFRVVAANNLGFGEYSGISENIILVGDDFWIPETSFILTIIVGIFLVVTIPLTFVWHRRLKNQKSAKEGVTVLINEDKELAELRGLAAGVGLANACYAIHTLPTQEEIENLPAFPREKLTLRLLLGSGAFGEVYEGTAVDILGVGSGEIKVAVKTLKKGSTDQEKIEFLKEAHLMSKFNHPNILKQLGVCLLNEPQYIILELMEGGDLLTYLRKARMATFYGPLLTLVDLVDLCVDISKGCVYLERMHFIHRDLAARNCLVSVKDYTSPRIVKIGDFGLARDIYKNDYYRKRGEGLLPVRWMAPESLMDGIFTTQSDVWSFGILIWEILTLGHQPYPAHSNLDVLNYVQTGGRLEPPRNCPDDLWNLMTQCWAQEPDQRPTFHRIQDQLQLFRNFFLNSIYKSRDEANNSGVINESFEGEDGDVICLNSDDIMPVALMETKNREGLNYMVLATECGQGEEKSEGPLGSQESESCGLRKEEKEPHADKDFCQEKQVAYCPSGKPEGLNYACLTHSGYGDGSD
Summary of the method: as §1

[4] = biological target: T4, GRK3(h) (Homo sapiens, UniProt P35626)
T4 construct: purchased Eurofins (KinaseProfiler)
Summary of the method: as §1

[5] = biological target: T5, Lyn(m) (Mus musculus, UniProt P25911)
T5 construct: purchased Eurofins (KinaseProfiler)
T5 sequence (P25911 2-512 limits assumed): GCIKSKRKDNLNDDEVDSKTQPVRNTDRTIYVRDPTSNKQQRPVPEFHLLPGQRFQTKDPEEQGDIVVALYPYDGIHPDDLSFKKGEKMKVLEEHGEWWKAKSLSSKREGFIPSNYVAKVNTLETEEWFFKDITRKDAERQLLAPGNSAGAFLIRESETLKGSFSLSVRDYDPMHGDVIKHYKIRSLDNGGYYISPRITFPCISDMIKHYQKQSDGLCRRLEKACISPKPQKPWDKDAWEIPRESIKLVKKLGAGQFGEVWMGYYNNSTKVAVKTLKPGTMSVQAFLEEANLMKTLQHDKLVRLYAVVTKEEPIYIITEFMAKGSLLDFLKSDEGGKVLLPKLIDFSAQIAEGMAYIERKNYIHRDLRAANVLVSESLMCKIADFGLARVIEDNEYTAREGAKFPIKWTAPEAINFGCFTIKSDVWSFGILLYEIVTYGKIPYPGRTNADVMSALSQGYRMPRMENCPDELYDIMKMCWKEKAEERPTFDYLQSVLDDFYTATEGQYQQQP
Summary of the method: as §1

[6] = biological target: T6, CDK12/cyclinK(h) (Homo sapiens, UniProt Q9NYV4)
T6 construct: purchased Eurofins (KinaseProfiler)
Summary of the method: as §1

[7] = biological target: T7, NEK2(h) (Homo sapiens, UniProt P51955)
T7 construct: purchased Eurofins (KinaseProfiler)
T7 sequence (P51955 whole entry): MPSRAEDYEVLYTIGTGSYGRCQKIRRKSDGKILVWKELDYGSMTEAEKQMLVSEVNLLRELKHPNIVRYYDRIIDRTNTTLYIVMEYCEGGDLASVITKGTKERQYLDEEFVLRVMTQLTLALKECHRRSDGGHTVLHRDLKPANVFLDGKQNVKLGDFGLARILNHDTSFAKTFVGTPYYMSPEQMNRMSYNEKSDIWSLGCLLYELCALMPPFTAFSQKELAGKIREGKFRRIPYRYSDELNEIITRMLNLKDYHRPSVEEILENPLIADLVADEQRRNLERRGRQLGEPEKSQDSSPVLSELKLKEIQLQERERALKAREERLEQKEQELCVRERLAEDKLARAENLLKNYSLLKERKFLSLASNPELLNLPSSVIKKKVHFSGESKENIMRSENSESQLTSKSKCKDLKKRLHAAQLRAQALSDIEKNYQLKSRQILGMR
Summary of the method: as §1

[8] = biological target: T8, Fms(Y969C)(h) (Homo sapiens, UniProt P07333, Y969C)
T8 construct: purchased Eurofins (KinaseProfiler)
Summary of the method: as §1

[9] = biological target: T9, Abl (Q252H) (h) (Homo sapiens, UniProt P00519, Q252H)
T9 construct: purchased Eurofins (KinaseProfiler)
Summary of the method: as §1

[10] = biological target: T10, FGFR1(V561M)(h) (Homo sapiens, UniProt P11362, V561M)
T10 construct: purchased Eurofins (KinaseProfiler)
Summary of the method: as §1

[11] = biological target: T11, MLK2(h) (Homo sapiens, UniProt Q02779)
T11 construct: purchased Eurofins (KinaseProfiler)
Summary of the method: as §1

[12] = biological target: T12, mTOR(h) (Homo sapiens, UniProt P42345)
T12 construct: purchased Eurofins (KinaseProfiler)
Summary of the method: as §1

[13] = biological target: T13, Haspin(h) (Homo sapiens, UniProt Q8TF76)
T13 construct: purchased Eurofins (KinaseProfiler)
Summary of the method: as §1

[14] = biological target: T14, NIM1(h) (Homo sapiens, UniProt Q8IY84)
T14 construct: purchased Eurofins (KinaseProfiler)
Summary of the method: as §1

[15] = biological target: T15, Itk(h) (Homo sapiens, UniProt Q08881)
T15 construct: purchased Eurofins (KinaseProfiler)
Summary of the method: as §1

[16] = biological target: T16, Abl (M351T)(h) (Homo sapiens, UniProt P00519, M351T)
T16 construct: purchased Eurofins (KinaseProfiler)
Summary of the method: as §1

[17] = biological target: T17, CDK6/cyclinD3(h) (Homo sapiens, UniProt Q00534)
T17 construct: purchased Eurofins (KinaseProfiler)
Summary of the method: as §1

[18] = biological target: T18, Rsk2(h) (Homo sapiens, UniProt P51812)
T18 construct: purchased Eurofins (KinaseProfiler)
T18 sequence (P51812 whole entry): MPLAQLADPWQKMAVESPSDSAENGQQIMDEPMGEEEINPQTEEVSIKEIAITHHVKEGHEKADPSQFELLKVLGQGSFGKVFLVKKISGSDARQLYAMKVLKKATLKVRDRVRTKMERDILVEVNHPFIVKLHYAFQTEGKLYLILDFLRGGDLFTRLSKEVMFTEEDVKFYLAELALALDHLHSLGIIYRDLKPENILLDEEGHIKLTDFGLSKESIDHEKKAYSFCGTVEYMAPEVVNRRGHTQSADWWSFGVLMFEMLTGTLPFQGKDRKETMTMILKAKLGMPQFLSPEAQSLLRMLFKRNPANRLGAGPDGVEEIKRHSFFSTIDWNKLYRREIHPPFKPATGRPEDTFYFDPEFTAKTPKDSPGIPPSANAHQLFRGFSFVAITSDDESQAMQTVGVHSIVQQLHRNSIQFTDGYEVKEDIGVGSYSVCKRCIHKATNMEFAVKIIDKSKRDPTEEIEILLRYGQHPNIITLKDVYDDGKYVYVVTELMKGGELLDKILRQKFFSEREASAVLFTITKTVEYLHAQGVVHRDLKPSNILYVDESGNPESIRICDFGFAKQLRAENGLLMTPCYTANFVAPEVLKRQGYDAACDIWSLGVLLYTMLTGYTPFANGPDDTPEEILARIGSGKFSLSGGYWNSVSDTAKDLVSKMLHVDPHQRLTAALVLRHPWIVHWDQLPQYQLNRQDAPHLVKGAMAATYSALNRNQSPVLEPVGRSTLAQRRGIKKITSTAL
Summary of the method: as §1

[19] = biological target: T19, CK1γ2(h) (Homo sapiens, UniProt P78368)
T19 construct: purchased Eurofins (KinaseProfiler)
Summary of the method: as §1

[20] = biological target: T20, Met(M1268T)(h) (Homo sapiens, UniProt P08581, M1250T)
T20 construct: purchased Eurofins (KinaseProfiler)
Summary of the method: as §1

[21] = biological target: T21, CRIK(h) (Homo sapiens, UniProt O14578)
T21 construct: purchased Eurofins (KinaseProfiler)
Summary of the method: as §1

[22] = biological target: T22, STK32B(h) (Homo sapiens, UniProt Q9NY57)
T22 construct: purchased Eurofins (KinaseProfiler)
Summary of the method: as §1

[23] = biological target: T23, EGFR(T790M)(h) (Homo sapiens, UniProt P00533, T790M)
T23 construct: purchased Eurofins (KinaseProfiler)
Summary of the method: as §1

[24] = biological target: T24, BTK(h) (Homo sapiens, UniProt Q06187)
T24 construct: purchased Eurofins (KinaseProfiler)
Summary of the method: as §1

[25] = biological target: T25, MLK4(h) (Homo sapiens, UniProt Q5TCX8)
T25 construct: purchased Eurofins (KinaseProfiler)
Summary of the method: as §1

[26] = biological target: T26, SAPK3(h) (Homo sapiens, UniProt P53778)
T26 construct: purchased Eurofins (KinaseProfiler)
Summary of the method: as §1

[27] = biological target: T27, DCAMKL1(h) (Homo sapiens, UniProt O15075)
T27 construct: purchased Eurofins (KinaseProfiler)
Summary of the method: as §1

[28] = biological target: T28, Rsk4(h) (Homo sapiens, UniProt Q9UK32)
T28 construct: purchased Eurofins (KinaseProfiler)
Summary of the method: as §1

[29] = biological target: T29, STK32C(h) (Homo sapiens, UniProt Q86UX6)
T29 construct: purchased Eurofins (KinaseProfiler)
Summary of the method: as §1

[30] = biological target: T30, Fms(h) (Homo sapiens, UniProt P07333)
T30 construct: purchased Eurofins (KinaseProfiler)
Summary of the method: as §1

[31] = biological target: T31, B-Raf(V599E)(h) (Homo sapiens, UniProt P15056, V600E)
T31 construct: purchased Eurofins (KinaseProfiler)
Summary of the method: as §1

[32] = biological target: T32, MST1(h) (Homo sapiens, UniProt Q13043)
T32 construct: purchased Eurofins (KinaseProfiler)
Summary of the method: as §1

[33] = biological target: T33, CK1α(h) (Homo sapiens, UniProt P48729)
T33 construct: purchased Eurofins (KinaseProfiler)
T33 sequence (P48729 whole entry): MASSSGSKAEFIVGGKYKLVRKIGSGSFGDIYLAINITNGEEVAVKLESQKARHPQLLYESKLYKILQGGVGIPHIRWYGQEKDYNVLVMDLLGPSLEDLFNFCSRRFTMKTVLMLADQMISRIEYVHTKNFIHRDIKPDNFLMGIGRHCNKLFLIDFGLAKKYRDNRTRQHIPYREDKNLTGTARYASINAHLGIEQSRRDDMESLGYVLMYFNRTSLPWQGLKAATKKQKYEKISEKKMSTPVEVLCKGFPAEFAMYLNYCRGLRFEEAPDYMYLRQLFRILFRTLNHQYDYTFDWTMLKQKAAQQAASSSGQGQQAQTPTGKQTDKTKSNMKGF
Summary of the method: as §1

[34] = biological target: T34, PAR-1Bα(h) (Homo sapiens, UniProt Q7KZI7)
T34 construct: purchased Eurofins (KinaseProfiler)
T34 sequence (Q7KZI7 1-725 isoform Q7KZI7-4): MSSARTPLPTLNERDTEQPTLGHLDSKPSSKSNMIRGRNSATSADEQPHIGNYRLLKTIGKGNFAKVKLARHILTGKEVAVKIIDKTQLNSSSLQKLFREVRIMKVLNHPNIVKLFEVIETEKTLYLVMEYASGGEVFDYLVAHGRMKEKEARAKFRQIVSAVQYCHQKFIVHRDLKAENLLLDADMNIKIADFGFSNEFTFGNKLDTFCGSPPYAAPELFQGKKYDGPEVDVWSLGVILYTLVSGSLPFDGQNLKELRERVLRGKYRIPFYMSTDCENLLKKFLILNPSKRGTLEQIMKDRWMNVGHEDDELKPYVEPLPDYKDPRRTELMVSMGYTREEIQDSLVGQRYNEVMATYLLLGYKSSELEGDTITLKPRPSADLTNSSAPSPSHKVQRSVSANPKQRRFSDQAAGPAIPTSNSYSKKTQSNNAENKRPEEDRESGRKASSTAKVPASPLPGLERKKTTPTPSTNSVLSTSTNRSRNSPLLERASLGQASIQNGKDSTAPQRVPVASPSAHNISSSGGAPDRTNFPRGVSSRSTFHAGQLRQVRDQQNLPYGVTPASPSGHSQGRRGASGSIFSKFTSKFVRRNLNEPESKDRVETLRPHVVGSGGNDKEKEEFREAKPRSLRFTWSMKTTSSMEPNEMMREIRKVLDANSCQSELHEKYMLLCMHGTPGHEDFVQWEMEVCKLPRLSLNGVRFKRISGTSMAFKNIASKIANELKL
Summary of the method: as §1

[35] = biological target: T35, CK1ε(h) (Homo sapiens, UniProt P49674)
T35 construct: purchased Eurofins (KinaseProfiler)
Summary of the method: as §1

[36] = biological target: T36, Plk1(h) (Homo sapiens, UniProt P53350)
T36 construct: purchased Eurofins (KinaseProfiler)
Summary of the method: as §1

Compound: Cc1cc(/C=C/C#N)cc(C)c1Nc1ccnc(Nc2ccc(C#N)cc2)n1 [rilpivirine, (E)-4-((4-((4-(2-cyanoethenyl)-2,6-dimethylphenyl)amino)pyrimidin-2-yl)amino)benzonitrile]
- remaining activity at 1 µM [1]: 95%
- remaining activity at 1 µM [2]: 108%
- remaining activity at 1 µM [3]: 77%
- remaining activity at 1 µM [4]: 92%
- remaining activity at 1 µM [5]: 25%
- remaining activity at 1 µM [6]: 85%
- remaining activity at 1 µM [7]: 97%
- remaining activity at 1 µM [8]: 83%
- remaining activity at 1 µM [9]: 94%
- remaining activity at 1 µM [10]: 97%
- remaining activity at 1 µM [11]: 85%
- remaining activity at 1 µM [12]: 97%
- remaining activity at 1 µM [13]: 61%
- remaining activity at 1 µM [14]: 88%
- remaining activity at 1 µM [15]: 91%
- remaining activity at 1 µM [16]: 74%
- remaining activity at 1 µM [17]: 96%
- remaining activity at 1 µM [18]: 82%
- remaining activity at 1 µM [19]: 90%
- remaining activity at 1 µM [20]: 109%
- remaining activity at 1 µM [21]: 107%
- remaining activity at 1 µM [22]: 99%
- remaining activity at 1 µM [23]: 79%
- remaining activity at 1 µM [24]: 90%
- remaining activity at 1 µM [25]: 95%
- remaining activity at 1 µM [26]: 106%
- remaining activity at 1 µM [27]: 91%
- remaining activity at 1 µM [28]: 99%
- remaining activity at 1 µM [29]: 94%
- remaining activity at 1 µM [30]: 91%
- remaining activity at 1 µM [31]: 95%
- remaining activity at 1 µM [32]: 84%
- remaining activity at 1 µM [33]: 103%
- remaining activity at 1 µM [34]: 104%
- remaining activity at 1 µM [35]: 116%
- remaining activity at 1 µM [36]: 107%
